What was measured:
Test in all cases: biochemical
Parameters in all cases: PDE enzyme inhibition, 3H-cAMP / 3H-cGMP scintillation proximity assay
PDE10A = biological target: T1, PDE10A (Homo sapiens, UniProt Q9Y233)
T1 construct: full-length, Sf9 cell-free extract
Method: (§1) PDE activity assays were performed as previously described. Briefly, cell-free extracts were prepared from Sf9 insect cells recombinantly expressing full-length human PDEs (PDE2A, 3A, 3B, 4B, 7B, 8A, 9A, 10A, 11A). PDE5 was purified from human platelets by homogenization (Microfluidizer, 800 bar, 3 passages), centrifugation (75,000 × g, 60 min, 4 °C), and ion exchange chromatography of the supernatant on a Mono Q 10/10 column (linear NaCl gradient, eluted with 0.2–0.3 M NaCl in a buffer containing 20 mM Hepes pH 7.2 and 2 mM MgCl2). Fractions containing PDE5 activity were pooled and stored at −80 °C. PDE6 was purified from rod outer segments of bovine retinae by Dr. Körschen, Forschungszentrum Jülich, Germany[34]. Bovine PDE1 was purchased from Sigma-Aldrich (P9529, Taufkirchen, Germany). Enzyme inhibition studies were carried out using the commercially available 3H-cAMP and 3H-cGMP Scintillation Proximity Assay (SPA) systems (RPNQ0150, Perkin-Elmer, Rodgau, Germany).

PDE11A = biological target: T2, PDE11A (Homo sapiens, UniProt Q9HCR9)
T2 construct: full-length, Sf9 cell-free extract
T2 sequence (Q9HCR9 whole entry): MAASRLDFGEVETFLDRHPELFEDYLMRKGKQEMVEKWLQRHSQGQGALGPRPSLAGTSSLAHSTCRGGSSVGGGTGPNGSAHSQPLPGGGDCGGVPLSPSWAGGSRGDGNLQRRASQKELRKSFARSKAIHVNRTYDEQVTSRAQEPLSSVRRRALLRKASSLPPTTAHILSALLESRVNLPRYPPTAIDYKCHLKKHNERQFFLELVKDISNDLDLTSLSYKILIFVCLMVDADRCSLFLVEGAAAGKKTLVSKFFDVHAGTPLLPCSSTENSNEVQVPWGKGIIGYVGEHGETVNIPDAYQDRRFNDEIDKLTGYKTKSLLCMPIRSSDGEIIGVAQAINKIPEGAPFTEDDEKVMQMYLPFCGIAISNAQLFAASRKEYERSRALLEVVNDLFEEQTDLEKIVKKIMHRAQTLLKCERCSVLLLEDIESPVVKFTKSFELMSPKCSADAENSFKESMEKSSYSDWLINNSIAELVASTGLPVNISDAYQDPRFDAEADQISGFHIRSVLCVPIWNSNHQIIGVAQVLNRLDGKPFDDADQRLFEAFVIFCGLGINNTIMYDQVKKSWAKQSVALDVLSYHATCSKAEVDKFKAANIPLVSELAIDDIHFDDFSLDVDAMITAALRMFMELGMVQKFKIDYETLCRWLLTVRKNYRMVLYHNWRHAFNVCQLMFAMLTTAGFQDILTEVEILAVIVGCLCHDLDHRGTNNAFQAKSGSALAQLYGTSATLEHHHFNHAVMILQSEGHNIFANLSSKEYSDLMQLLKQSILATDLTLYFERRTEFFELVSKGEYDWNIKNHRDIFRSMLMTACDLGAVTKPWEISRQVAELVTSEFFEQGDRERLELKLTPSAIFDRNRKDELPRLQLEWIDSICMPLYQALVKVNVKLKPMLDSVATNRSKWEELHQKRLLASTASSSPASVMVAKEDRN
Method: as §1

PDE2A = biological target: T3, PDE2A (Homo sapiens, UniProt O00408)
T3 construct: full-length, Sf9 cell-free extract
Method: as §1

PDE3A = biological target: T4, PDE3A (Homo sapiens, UniProt Q14432)
T4 construct: full-length, Sf9 cell-free extract
Method: as §1

PDE3B = biological target: T5, PDE3B (Homo sapiens, UniProt Q13370)
T5 construct: full-length human PDE3B, Sf9 cell-free extract
T5 sequence (Q13370 whole entry): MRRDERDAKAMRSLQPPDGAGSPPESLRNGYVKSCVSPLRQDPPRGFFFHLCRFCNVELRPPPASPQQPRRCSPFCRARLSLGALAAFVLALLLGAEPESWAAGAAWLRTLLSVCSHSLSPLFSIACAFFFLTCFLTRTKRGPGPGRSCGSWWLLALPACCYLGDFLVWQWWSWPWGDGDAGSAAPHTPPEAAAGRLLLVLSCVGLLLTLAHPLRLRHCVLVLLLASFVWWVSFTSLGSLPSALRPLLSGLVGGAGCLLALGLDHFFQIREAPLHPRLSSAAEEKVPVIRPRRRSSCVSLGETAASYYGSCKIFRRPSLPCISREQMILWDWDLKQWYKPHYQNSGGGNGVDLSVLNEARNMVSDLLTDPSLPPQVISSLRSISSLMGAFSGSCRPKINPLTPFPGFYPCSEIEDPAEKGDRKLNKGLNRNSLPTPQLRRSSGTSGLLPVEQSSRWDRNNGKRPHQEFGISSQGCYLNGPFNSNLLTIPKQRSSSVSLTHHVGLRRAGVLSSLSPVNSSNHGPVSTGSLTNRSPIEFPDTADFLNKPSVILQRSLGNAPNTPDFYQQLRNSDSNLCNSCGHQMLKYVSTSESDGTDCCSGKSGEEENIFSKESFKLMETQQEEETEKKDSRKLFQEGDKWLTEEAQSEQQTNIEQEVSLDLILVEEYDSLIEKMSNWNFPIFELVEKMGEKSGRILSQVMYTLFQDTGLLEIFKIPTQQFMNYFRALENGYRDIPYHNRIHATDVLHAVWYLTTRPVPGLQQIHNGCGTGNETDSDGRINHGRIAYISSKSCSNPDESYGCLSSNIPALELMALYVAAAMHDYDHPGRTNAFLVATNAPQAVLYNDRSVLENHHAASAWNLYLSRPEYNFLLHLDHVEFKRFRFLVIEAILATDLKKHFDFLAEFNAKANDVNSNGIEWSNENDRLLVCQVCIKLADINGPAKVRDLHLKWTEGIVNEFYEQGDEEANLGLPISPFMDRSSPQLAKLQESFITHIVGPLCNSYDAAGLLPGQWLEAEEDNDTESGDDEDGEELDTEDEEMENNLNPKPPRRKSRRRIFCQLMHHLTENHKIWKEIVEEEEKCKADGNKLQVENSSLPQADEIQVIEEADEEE
Method: as §1

PDE5 = biological target: T6, PDE5 (Homo sapiens, UniProt O76074)
T6 construct: gene PDE5A; native, purified from human platelets
Method: as §1

PDE6 = biological target: T7, PDE6 (Bos taurus, UniProt P11541+P23439)
T7 construct: gene PDE6A; native, purified from rod outer segments of bovine retinae
T7 sequence (P11541 1-859): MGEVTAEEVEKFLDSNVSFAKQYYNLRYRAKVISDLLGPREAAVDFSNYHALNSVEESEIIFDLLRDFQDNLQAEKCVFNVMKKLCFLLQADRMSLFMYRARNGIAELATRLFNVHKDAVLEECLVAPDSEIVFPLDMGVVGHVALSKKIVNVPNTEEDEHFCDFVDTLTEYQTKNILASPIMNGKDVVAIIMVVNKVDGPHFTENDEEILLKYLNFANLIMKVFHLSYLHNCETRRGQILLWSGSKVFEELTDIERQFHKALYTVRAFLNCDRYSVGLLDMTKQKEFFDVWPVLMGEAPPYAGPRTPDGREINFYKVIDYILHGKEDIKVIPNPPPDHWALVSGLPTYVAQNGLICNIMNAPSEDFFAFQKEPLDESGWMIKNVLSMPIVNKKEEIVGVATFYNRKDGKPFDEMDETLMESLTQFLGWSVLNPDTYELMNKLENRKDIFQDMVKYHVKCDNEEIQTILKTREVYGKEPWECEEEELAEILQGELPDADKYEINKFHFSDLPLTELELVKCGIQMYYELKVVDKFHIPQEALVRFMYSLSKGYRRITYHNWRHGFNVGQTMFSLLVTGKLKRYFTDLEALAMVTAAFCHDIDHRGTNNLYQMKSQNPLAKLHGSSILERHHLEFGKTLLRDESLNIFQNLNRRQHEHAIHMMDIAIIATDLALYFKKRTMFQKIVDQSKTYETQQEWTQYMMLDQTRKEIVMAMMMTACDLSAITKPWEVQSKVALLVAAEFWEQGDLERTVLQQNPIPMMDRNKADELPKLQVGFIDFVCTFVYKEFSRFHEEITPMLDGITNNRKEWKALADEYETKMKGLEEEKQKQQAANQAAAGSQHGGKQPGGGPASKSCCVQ
T7 sequence (P23439 1-853): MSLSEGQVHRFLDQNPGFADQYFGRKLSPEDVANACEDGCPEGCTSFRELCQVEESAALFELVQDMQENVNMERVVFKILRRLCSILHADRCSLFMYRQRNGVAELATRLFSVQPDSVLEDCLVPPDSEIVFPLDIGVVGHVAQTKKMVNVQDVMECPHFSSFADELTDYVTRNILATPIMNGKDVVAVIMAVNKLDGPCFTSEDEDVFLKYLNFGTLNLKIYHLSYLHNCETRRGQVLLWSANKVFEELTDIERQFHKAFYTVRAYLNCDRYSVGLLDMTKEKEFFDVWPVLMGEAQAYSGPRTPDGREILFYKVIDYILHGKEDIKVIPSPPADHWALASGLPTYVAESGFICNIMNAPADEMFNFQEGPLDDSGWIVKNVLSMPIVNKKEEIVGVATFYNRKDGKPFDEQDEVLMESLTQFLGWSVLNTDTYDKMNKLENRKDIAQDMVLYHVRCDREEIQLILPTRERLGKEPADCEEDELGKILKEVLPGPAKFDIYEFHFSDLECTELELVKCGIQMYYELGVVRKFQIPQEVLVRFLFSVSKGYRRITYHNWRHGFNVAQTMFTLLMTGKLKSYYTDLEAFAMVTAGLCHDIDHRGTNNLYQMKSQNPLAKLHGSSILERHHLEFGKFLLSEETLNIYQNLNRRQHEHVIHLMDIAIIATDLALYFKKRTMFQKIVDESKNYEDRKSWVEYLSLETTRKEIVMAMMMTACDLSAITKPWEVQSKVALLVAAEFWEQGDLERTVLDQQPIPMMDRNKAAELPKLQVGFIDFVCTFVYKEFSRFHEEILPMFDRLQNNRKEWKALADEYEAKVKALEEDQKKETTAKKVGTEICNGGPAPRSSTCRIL
Method: as §1

PDE7B = biological target: T8, PDE7B (Homo sapiens, UniProt Q9NP56)
T8 construct: full-length, Sf9 cell-free extract
T8 sequence (Q9NP56 whole entry): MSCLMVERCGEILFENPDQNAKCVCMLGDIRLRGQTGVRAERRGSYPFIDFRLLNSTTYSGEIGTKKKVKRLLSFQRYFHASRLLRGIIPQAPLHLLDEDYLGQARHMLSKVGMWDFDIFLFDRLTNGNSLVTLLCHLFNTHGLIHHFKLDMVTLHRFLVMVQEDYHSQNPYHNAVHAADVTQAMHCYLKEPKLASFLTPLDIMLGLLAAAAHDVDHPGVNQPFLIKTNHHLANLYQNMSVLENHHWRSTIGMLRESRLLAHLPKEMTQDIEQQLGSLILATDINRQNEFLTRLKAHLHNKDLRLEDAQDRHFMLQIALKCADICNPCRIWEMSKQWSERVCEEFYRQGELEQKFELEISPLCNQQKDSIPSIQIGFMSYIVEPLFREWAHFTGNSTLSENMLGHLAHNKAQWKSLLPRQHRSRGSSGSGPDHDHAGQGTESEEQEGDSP
Method: as §1

PDE8A = biological target: T9, PDE8A (Homo sapiens, UniProt O60658)
T9 construct: full-length, Sf9 cell-free extract
T9 sequence (O60658 whole entry): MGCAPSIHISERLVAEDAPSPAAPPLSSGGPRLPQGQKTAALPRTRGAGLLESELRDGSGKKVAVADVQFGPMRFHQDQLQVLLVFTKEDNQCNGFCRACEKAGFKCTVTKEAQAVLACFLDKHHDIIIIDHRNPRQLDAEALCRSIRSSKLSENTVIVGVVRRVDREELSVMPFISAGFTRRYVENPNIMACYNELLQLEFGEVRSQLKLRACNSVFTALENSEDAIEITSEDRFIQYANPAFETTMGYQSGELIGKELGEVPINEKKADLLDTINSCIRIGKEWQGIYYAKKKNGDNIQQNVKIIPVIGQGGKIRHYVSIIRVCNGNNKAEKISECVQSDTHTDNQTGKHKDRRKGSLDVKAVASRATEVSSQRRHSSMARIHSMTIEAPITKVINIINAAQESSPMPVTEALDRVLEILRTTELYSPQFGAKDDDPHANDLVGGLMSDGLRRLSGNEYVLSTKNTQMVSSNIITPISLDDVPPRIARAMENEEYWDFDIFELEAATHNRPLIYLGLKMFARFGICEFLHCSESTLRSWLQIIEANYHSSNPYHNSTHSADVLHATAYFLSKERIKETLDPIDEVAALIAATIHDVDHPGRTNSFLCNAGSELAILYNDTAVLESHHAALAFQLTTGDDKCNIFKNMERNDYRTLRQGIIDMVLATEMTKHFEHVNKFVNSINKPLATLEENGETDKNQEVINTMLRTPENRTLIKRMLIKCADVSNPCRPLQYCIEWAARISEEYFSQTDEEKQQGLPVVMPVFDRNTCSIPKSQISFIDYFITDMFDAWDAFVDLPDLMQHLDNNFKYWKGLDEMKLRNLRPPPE
Method: as §1

PDE9A = biological target: T10, PDE9A (Homo sapiens, UniProt O76083)
T10 construct: full-length, Sf9 cell-free extract
T10 sequence (O76083 whole entry): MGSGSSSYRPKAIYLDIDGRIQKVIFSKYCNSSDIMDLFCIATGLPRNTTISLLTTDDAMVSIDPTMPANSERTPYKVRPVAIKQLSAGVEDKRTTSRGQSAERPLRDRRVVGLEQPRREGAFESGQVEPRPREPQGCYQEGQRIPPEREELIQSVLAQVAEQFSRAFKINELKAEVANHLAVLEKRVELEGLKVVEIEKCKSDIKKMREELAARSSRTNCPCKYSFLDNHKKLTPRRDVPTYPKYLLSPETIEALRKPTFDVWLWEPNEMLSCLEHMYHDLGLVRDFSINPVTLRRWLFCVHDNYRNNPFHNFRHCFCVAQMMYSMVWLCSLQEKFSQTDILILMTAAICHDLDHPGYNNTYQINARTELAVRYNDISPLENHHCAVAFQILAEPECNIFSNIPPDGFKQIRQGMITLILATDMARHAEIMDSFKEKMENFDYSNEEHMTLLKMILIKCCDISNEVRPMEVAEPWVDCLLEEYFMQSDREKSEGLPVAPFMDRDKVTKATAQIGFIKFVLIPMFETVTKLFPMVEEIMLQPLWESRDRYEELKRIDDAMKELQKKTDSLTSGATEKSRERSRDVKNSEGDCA
Method: as §1

T1 sequence (Q9Y233 whole entry): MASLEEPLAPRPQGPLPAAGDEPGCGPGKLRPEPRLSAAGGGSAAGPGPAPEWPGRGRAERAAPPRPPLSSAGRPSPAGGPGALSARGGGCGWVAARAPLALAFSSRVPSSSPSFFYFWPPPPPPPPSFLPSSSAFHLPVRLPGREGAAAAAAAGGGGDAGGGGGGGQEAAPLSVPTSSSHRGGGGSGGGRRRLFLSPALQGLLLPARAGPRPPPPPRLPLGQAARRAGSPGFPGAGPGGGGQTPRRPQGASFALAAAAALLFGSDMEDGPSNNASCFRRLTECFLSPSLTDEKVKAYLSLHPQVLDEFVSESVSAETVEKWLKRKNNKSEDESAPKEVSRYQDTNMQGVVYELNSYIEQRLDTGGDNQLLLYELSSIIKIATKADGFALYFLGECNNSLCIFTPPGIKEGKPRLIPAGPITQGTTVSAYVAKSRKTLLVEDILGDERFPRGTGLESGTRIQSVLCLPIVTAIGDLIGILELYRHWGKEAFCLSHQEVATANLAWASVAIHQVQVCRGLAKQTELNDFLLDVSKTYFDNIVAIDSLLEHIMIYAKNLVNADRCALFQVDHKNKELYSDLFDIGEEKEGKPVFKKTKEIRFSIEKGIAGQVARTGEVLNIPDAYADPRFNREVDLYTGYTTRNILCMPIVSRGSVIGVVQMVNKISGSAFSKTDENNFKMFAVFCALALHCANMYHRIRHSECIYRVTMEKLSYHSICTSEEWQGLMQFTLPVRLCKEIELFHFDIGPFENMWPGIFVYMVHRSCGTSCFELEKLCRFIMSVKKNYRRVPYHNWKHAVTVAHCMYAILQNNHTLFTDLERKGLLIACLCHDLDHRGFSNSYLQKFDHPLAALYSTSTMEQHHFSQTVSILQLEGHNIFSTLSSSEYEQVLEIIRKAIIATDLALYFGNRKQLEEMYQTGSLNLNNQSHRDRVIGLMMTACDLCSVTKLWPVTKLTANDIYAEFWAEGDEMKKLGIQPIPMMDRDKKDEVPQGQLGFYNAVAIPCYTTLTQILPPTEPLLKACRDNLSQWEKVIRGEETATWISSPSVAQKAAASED

SMILES: COc1cc2c(cc1OC)-c1c/c(=N\c3c(C)cc(C)cc3C)n(C)c(=O)n1CC2 [trequinsin]
- IC50 (PDE10A): 49.8 nM
- IC50 (PDE11A): 1000 nM
- IC50 (PDE2A): 785 nM
- IC50 (PDE3A): 0.023 nM
- IC50 (PDE3B): 0.05 nM
- IC50 (PDE5): 870 nM
- IC50 (PDE6): 1200 nM
- IC50 (PDE7B): > 10000 nM
- IC50 (PDE8A): 8000 nM
- IC50 (PDE9A): > 10000 nM

Reference: publication PMC8285493 (Nature Communications, 2021)
